Assay results published in patent US10975037B2 (priority 2018, dated 2021).
Where a name gives a salt, the structure may show the parent alone. Read-outs that look alike come from different tables or passages of the source.

What was measured:
[1] = target: human RORγt ligand binding domain (RORγt LBD) (Homo sapiens (Human), UniProt P51449); experiment: RORγt ThermoFluor® assay (thermal shift binding); conditions: ThermoFluor® Assay, Kd
Method: This approach is applicable to a wide variety of systems, and rigorous in theoretical interpretation through quantitation of equilibrium binding constants (KD).
The shift in the melting point described as a ΔTm is proportional to the concentration and affinity of the ligand.
RORγt ThermoFluor® Assay Construct
Reference wells contained RORγt without compounds, and the assay conditions were as follows: • 0.065 mg/mL RORγt • 60 μM 1,8-ANS • 100 mM Hepes, pH 7.0 • 10 mM NaCl • 2.5 mM GSH • 0.002% Tween-20
Project compounds were arranged in a pre-dosed mother plate (Greiner Bio-one) wherein compounds are serially diluted in 100% DMSO by 1:2 from a high concentration of 10 mM over 12 columns within a series (column 12 is a reference well containing DMSO, no compound). The compounds were robotically dispensed directly into assay plates (1×=46 nL) using a Hummingbird capillary liquid handling instrument (Digilab). Following compound dispense, protein and dye in buffer was added to achieve the final assay volume of 3 μL, followed by 1 μL of silicone oil.

full-length human RORγt = full-length human RORγt (Homo sapiens (Human), UniProt P51449); experiment: RORγt (full-length human) reporter assay, conditions A or B, HEK293T cells; type: cell-based; conditions: for IC50: RORγt (FL) Reporter Assay A or B, IC50, HEK293T cells; for inhibition at 0.67 µM: 0.67 μM compound concentration (footnote ****); for inhibition at 2 µM: 2 μM compound concentration
Sequence of full-length human RORγt (P51449 other isoform, or with tags, fused parts or gaps): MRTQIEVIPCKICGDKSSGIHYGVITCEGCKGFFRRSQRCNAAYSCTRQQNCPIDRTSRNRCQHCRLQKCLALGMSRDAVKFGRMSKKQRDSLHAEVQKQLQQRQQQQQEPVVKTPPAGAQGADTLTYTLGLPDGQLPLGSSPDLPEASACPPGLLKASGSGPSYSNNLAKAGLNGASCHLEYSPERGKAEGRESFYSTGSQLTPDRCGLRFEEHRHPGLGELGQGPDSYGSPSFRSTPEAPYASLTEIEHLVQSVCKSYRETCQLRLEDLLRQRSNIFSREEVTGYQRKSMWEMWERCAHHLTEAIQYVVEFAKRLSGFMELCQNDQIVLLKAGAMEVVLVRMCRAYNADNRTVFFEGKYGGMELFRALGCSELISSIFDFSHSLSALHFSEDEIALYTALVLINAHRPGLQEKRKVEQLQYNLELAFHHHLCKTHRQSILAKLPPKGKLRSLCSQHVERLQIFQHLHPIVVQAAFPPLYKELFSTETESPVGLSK
Summary of the method: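 After 16–20 h, dual firefly/Renilla luciferase luminescence was read. Firefly signal was normalized to DMSO and saturating reference compound, then to Renilla, and fitted for IC50; % inhibition is versus DMSO.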

[2] = HEK-293T, read-out: RORγt (FL) Reporter Assay A or B, % inhibition
[3] = HEK-293T, 0.33 μM compound concentration (footnote *****), read-out: RORγt (FL) Reporter Assay A or B, % inhibition
[4] = HEK-293T, 0.11 μM compound concentration (footnote ********), read-out: RORγt (FL) Reporter Assay A or B, % inhibition

Sequence of human RORγt ligand binding domain (RORγt LBD) (P51449 other isoform, or with tags, fused parts or gaps): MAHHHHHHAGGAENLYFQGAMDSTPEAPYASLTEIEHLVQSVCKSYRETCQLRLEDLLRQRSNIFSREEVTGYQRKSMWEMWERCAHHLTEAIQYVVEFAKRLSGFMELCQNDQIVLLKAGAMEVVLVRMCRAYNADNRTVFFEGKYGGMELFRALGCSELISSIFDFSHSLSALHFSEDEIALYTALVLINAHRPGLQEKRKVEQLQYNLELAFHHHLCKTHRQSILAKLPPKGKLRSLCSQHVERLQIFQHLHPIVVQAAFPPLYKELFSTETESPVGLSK

Kd [1] [nM] | inhibition at 3 µM (full-length human RORγt; HEK-293T, 3 μM compound concentration (footnote *), read-out: RORγt (FL) Reporter Assay A or B, % inhibition) [%] | IC50 (full-length human RORγt) [nM] | inhibition at 0.67 µM (full-length human RORγt; [2]) [%] | inhibition at […] (full-length human RORγt; [3]) [%] | inhibition at 1 µM (full-length human RORγt; HEK-293T, 1 μM compound concentration (footnote ***), read-out: RORγt (FL) Reporter Assay A or B, % inhibition) [%] | inhibition at 2 µM (full-length human RORγt; [2]) [%] | inhibition at […] (full-length human RORγt; [4]) [%] | SMILES
2.4 | 117 | 29 |  |  |  |  |  | CCn1nc(C(=O)NC[C@]2(O)CC[C@@H](S(C)(=O)=O)C[C@H]2N)c(Cl)c1-c1ccc(CC(C)(C)C(F)(F)F)cc1OC(F)F (single isomer, unassigned) [Example 6, N-(((1R*,2R*,4R*)-2-Amino-1-hydroxy-4-(methylsulfonyl)cyclohexyl)methyl)-4-chloro-5-(2-(difluoromethoxy)-4-(3,3,3-trifluoro-2,2-dimethylpropyl)phenyl)-1-ethyl-1H-pyrazole-3-carboxamide Hydrobromide]
0.13 |  | 5.4 | 113 |  |  |  |  | CCn1nc(C(=O)NC[C@H]2CC[C@H](S(C)(=O)=O)CO2)c(Cl)c1-c1ccc(CC(C)(C)C(F)(F)F)cc1OC(F)F (single isomer, unassigned) [Example 15, 4-Chloro-5-(2-(difluoromethoxy)-4-(3,3,3-trifluoro-2,2-dimethylpropyl)phenyl)-1-ethyl-N-(((2R*,5S)-5-(methylsulfonyl)tetrahydro-2H-pyran-2-yl)methyl)-1H-pyrazole-3-carboxamide]
0.19 |  | 4.8 | 105 |  |  |  |  | CCn1nc(C(=O)NC[C@@H]2CC[C@@H](S(C)(=O)=O)CO2)c(Cl)c1-c1ccc(CC(C)(C)C(F)(F)F)cc1OC(F)F (single isomer, unassigned) [Example 16, 4-Chloro-5-(2-(difluoromethoxy)-4-(3,3,3-trifluoro-2,2-dimethylpropyl)phenyl)-1-ethyl-N-(((2S*,5R*)-5-(methylsulfonyl)tetrahydro-2H-pyran-2-yl)methyl)-1H-pyrazole-3-carboxamide]
0.37 |  | 3.6 |  | 103 |  |  |  | CCn1nc(C(=O)NC[C@H]2CC[C@H](S(C)(=O)=O)C[C@@H]2O)c(Cl)c1-c1ccc(CC(C)(C)C(F)(F)F)cc1OC(F)F (single isomer, unassigned) [Example 21, 4-Chloro-5-(2-(difluoromethoxy)-4-(3,3,3-trifluoro-2,2-dimethylpropyl)phenyl)-1-ethyl-N-(((1R*,2S*,4S*)-2-hydroxy-4-(methylsulfonyl)cyclohexyl)methyl)-H-pyrazole-3-carboxamide]
0.44 |  | 4.2 |  |  | 100 |  |  | CCn1nc(C(=O)NC[C@@H]2CC[C@@H](S(C)(=O)=O)C[C@H]2O)c(Cl)c1-c1ccc(CC(C)(C)C(F)(F)F)cc1OC(F)F (single isomer, unassigned) [Example 22, 4-Chloro-5-(2-(difluoromethoxy)-4-(3,3,3-trifluoro-2,2-dimethylpropyl)phenyl)-1-ethyl-N-(((1S*,2R*,4R*)-2-hydroxy-4-(methylsulfonyl)cyclohexyl)methyl)-1H-pyrazole-3-carboxamide]
0.71 |  | 13 |  |  |  | 99 |  | CCCn1nc(C(=O)NC[C@]2(O)CC[C@@H](S(C)(=O)=O)CC2)c(Cl)c1-c1ccc(C[C@H](C)C(F)(F)F)cc1OC (single isomer, unassigned) [Example 40, 4-Chloro-N-(((1s,4R)-1-hydroxy-4-(methylsulfonyl)cyclohexyl)methyl)-5-(2-methoxy-4-((S*)-3,3,3-trifluoro-2-methylpropyl)phenyl)-1-propyl-1H-pyrazole-3-carboxamide]
0.28 |  | 8 | 98 |  |  |  |  | CCCn1nc(C(=O)NC[C@H]2CC[C@H](S(C)(=O)=O)CC2)c(Cl)c1-c1ccc(C[C@H](C)C(F)(F)F)cc1OC (single isomer, unassigned) [Example 41, 4-Chloro-5-(2-methoxy-4-((S*)-3,3,3-trifluoro-2-methylpropyl)phenyl)-N-(((1r,4S)-4-(methylsulfonyl)cyclohexyl)methyl)-1-propyl-1H-pyrazole-3-carboxamide]
0.42 |  | 9 |  |  |  | 101 |  | CCCn1nc(C(=O)NC[C@]2(O)CC[C@@H](S(C)(=O)=O)CC2)c(Cl)c1-c1ccc(C[C@@H](C)C(F)(F)F)cc1OC (single isomer, unassigned) [Example 42, 4-Chloro-N-(((1s,4S)-1-hydroxy-4-(methylsulfonyl)cyclohexyl)methyl)-5-(2-methoxy-4-((R*)-3,3,3-trifluoro-2-methylpropyl)phenyl)-1-propyl-1H-pyrazole-3-carboxamide]
0.21 |  | 7 | 99 |  |  |  |  | CCCn1nc(C(=O)NC[C@H]2CC[C@H](S(C)(=O)=O)CC2)c(Cl)c1-c1ccc(C[C@@H](C)C(F)(F)F)cc1OC (single isomer, unassigned) [Example 43, 4-Chloro-5-(2-methoxy-4-((R*)-3,3,3-trifluoro-2-methylpropyl)phenyl)-N-(((1r,4R)-4-(methylsulfonyl)cyclohexyl)methyl)-1-propyl-1H-pyrazole-3-carboxamide]
0.37 |  | 1.7 |  |  |  | 103 |  | CCn1nc(C(=O)NC[C@@]2(O)CC[C@H](S(C)(=O)=O)C[C@@H]2O)c(Cl)c1-c1ccc(CC(C)(C)C(F)(F)F)cc1OC(F)F (single isomer, unassigned) [Example 47, 4-Chloro-5-(2-(difluoromethoxy)-4-(3,3,3-trifluoro-2,2-dimethylpropyl)phenyl)-N-(((1S*,2S*,4S*)-1,2-dihydroxy-4-(methylsulfonyl)cyclohexyl)methyl)-1-ethyl-1H-pyrazole-3-carboxamide]
31 |  | 61 |  |  |  | 95 |  | CCn1nc(C(=O)NC[C@]2(O)CC[C@H](S(C)(=O)=O)C[C@H]2O)c(Cl)c1-c1ccc(CC(C)(C)C(F)(F)F)cc1OC(F)F (single isomer, unassigned) [Example 48, 4-Chloro-5-(2-(difluoromethoxy)-4-(3,3,3-trifluoro-2,2-dimethylpropyl)phenyl)-N-(((1R*,2R*4S*)-1,2-dihydroxy-4-(methylsulfonyl)cyclohexyl)methyl)-1-ethyl-1H-pyrazole-3-carboxamide]
26 |  | 61 |  |  |  | 96 |  | CCn1nc(C(=O)NC[C@@]2(O)CC[C@@H](S(C)(=O)=O)C[C@@H]2O)c(Cl)c1-c1ccc(CC(C)(C)C(F)(F)F)cc1OC(F)F (single isomer, unassigned) [Example 49, 4-Chloro-5-(2-(difluoromethoxy)-4-(3,3,3-trifluoro-2,2-dimethylpropyl)phenyl)-N-(((1S*,2S*,4R*)-1,2-dihydroxy-4-(methylsulfonyl)cyclohexyl)methyl)-1-ethyl-1H-pyrazole-3-carboxamide]
0.69 |  | 9.8 |  | 102 |  |  |  | CCn1nc(C(=O)NC[C@H]2CC[C@H](S(N)(=O)=O)CC2)c(Cl)c1-c1ccc(C[C@H](C)C(F)(F)F)cc1OC(F)F (single isomer, unassigned) [Example 54, 4-Chloro-5-(2-(difluoromethoxy)-4-((S*)-3,3,3-trifluoro-2-methylpropyl)phenyl)-1-ethyl-N-(((1r,4S)-4-sulfamoylcyclohexyl)methyl)-1H-pyrazole-3-carboxamide]
0.35 |  | 10 |  |  |  |  | 94 | CCn1nc(C(=O)NC[C@H]2CC[C@H](S(C)(=O)=O)CC2)c(Cl)c1-c1ccc(C[C@H](C)C(F)(F)F)cc1OC(F)F (single isomer, unassigned) [Example 55, 4-Chloro-5-(2-(difluoromethoxy)-4-((S*)-3,3,3-trifluoro-2-methylpropyl)phenyl)-1-ethyl-N-(((1r,4S)-4-(methylsulfonyl)cyclohexyl)methyl)-1H-pyrazole-3-carboxamide]
1 |  | 8.7 |  |  |  |  | 94 | CCn1nc(C(=O)NC[C@]2(O)CC[C@@H](S(C)(=O)=O)CC2)c(Cl)c1-c1ccc(C[C@H](C)C(F)(F)F)cc1OC(F)F (single isomer, unassigned) [Example 56, 4-Chloro-5-(2-(difluoromethoxy)-4-((S*)-3,3,3-trifluoro-2-methylpropyl)phenyl)-1-ethyl-N-(((1s,4R)-1-hydroxy-4-(methylsulfonyl)cyclohexyl)methyl)-1H-pyrazole-3-carboxamide]
1.2 |  | 19 |  | 93 |  |  |  | CCn1nc(C(=O)NC[C@H]2CC[C@H](S(N)(=O)=O)CC2)c(C)c1-c1ccc(C[C@H](C)C(F)(F)F)cc1OC(F)F (single isomer, unassigned) [Example 59, 5-(2-(difluoromethoxy)-4-((S*)-3,3,3-trifluoro-2-methylpropyl)phenyl)-1-ethyl-4-methyl-N-(((1r,4S)-4-sulfamoylcyclohexyl)methyl)-1H-pyrazole-3-carboxamide]
